What was measured:
human Nav1.7 = biological target: T1, human Nav1.7 (Homo sapiens, UniProt Q15858); test: FRET assay (EFS, FDSS) on CHO cells expressing human NaV1.7 channels; format: cell-based; settings: FRET assay, CHO cells expressing human NaV1.7; read-out: IC50 against Nav1.7
T1 construct: expressed in transfected cells; host or cells: CHO

human NaV1.3 = biological target: T2, human NaV1.3 (Homo sapiens, UniProt Q9NY46); test: FRET assay (EFS, FDSS) on HEK293 cells expressing human NaV1.3 channels; format: cell-based; settings: FRET assay, HEK293 cells expressing human NaV1.3; read-out: IC50 against Nav1.3
T2 construct: expressed in transfected cells; host or cells: HEK293
T2 sequence (Q9NY46 whole entry): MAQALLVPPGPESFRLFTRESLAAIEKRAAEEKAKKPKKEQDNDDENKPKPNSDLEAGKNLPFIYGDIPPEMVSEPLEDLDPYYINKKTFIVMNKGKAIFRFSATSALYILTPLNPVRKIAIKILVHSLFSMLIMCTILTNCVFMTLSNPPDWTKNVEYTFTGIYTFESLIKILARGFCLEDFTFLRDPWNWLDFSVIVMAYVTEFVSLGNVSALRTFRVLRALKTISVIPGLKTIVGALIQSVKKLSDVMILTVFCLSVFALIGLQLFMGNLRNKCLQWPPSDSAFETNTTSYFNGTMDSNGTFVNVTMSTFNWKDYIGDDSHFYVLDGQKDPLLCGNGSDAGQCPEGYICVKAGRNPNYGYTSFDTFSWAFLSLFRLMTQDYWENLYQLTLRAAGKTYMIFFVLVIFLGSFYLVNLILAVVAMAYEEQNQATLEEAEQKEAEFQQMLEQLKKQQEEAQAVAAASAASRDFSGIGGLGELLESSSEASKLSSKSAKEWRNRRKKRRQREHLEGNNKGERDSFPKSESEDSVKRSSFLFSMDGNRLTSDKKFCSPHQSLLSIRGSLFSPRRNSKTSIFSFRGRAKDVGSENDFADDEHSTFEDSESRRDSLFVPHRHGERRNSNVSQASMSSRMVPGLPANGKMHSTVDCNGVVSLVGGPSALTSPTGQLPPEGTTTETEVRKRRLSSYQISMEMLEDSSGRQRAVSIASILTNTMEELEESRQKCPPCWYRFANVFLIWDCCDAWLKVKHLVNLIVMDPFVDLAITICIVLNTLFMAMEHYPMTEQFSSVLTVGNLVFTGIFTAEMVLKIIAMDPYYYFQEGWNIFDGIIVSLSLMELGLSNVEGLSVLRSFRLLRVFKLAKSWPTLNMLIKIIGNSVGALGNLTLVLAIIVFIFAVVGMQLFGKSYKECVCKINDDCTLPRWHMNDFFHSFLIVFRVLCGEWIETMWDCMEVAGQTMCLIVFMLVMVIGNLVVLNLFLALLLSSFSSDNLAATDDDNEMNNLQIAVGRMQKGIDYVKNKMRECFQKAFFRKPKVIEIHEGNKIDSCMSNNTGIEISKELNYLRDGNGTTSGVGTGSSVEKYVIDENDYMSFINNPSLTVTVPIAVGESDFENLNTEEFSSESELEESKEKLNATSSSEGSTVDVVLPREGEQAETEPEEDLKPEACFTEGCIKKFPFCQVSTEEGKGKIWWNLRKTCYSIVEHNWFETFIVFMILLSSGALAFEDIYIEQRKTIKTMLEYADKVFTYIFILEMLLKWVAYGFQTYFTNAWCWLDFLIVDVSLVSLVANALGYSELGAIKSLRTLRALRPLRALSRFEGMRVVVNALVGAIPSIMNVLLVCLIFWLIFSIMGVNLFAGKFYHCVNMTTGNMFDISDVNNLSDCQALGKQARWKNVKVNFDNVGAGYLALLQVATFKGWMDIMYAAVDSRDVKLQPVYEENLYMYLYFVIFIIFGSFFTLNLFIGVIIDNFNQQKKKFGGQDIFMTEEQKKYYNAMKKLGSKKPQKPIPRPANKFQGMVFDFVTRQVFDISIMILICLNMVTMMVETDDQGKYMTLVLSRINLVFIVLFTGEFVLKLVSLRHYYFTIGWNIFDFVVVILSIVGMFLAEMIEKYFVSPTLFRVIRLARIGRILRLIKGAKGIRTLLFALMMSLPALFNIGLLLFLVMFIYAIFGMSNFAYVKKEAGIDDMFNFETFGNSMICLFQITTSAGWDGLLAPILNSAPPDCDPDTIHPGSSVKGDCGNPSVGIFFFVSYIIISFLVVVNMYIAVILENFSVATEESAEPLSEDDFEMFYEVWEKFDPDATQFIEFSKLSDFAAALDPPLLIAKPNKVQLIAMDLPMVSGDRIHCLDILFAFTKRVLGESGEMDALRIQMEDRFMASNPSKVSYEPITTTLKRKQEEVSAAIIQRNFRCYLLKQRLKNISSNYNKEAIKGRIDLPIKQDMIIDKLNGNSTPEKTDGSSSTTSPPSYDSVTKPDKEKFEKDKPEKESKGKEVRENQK
Outline: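 Membrane potential in HEK293 cells stably expressing human NaV1.3, read by FRET (CC2-DMPE 10 µM / DiSBAC2(3) 15 µM with 0.555 mM VABSC-1) after electrical field stimulation, in HEPES-buffered saline pH 7.4. Compounds added after dye loading at room temperature. IC50 from normalized 440 nm fluorescence ratios.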

T1 sequence (Q15858 whole entry): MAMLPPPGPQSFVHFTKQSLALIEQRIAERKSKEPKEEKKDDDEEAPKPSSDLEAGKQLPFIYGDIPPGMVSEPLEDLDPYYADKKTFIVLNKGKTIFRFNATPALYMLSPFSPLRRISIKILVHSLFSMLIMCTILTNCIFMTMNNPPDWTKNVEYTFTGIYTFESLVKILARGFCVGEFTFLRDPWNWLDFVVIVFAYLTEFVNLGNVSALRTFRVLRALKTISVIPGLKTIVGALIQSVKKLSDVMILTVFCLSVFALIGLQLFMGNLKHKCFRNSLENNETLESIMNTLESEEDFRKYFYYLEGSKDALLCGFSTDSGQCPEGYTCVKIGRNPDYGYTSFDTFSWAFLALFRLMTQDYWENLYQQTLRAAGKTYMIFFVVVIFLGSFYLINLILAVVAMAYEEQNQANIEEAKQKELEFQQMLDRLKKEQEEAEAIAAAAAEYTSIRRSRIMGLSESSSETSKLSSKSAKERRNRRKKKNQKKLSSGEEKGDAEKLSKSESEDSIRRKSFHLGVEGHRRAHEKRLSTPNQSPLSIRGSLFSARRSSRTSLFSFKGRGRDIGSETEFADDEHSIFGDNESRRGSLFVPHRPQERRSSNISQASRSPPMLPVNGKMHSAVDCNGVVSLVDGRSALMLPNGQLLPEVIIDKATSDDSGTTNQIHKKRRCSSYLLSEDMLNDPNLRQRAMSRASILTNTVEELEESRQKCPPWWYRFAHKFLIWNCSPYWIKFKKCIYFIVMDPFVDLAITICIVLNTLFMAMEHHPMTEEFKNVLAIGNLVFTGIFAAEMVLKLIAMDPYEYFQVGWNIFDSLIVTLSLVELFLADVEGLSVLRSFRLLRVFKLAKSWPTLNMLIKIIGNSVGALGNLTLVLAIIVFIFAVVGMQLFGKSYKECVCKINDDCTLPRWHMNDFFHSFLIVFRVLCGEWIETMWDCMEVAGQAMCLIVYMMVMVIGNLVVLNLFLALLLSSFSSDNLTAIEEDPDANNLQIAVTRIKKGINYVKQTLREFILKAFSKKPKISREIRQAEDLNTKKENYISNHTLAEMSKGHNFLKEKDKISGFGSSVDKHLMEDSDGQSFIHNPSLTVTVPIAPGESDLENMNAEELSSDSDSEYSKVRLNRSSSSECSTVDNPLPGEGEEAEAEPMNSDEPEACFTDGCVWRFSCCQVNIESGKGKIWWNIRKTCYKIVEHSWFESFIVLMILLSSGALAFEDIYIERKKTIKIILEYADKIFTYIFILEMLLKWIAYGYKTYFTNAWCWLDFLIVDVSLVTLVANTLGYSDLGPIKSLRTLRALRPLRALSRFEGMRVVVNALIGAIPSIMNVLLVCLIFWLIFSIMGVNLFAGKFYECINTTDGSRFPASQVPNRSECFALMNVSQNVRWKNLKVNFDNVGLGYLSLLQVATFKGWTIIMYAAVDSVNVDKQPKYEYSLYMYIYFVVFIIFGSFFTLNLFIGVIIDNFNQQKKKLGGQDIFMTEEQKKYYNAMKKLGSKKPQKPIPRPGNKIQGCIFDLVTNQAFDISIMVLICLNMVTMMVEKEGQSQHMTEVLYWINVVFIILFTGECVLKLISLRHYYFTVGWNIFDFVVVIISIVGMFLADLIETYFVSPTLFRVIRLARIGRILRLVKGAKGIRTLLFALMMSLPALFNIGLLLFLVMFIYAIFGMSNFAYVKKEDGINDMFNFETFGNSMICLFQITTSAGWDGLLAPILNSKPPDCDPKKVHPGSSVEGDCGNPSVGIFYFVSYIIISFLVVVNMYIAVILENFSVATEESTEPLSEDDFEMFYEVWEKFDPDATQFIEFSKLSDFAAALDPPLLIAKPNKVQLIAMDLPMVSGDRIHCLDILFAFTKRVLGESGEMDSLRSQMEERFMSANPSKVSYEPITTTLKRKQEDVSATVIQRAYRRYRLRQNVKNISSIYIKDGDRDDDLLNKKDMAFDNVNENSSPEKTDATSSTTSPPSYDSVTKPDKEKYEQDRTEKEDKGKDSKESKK

| Compound | IC50 (human Nav1.7) | IC50 (human NaV1.3) |
| --- | --- | --- |
| Cc1nc(-c2ccccc2)oc1C(=O)N1CCN(c2cc(OCC(C)C)ncn2)CC1 [Example 208, (4-(6-isobutoxypyrimidin-4-yl)piperazin-1-yl)(4-methyl-2-phenyloxazol-5-yl)methanone] | < 3 µM | < 3 µM |
| Cn1nc(C(=O)N2CCN(c3cc(OCC(F)(F)F)ncn3)CC2)c2cc(F)ccc21 [Example 212, (5-fluoro-1-methyl-1H-indazol-3-yl)(4-(6-(2,2,2-trifluoroethoxy)pyrimidin-4-yl)piperazin-1-yl)methanone] | < 3 µM | < 3 µM |
| CC(C)COc1cc(N2CCN(C(=O)c3csc(-c4ccccc4)n3)CC2)ncn1 [Example 213, (4-(6-isobutoxypyrimidin-4-yl)piperazin-1-yl)(2-phenylthiazol-4-yl)methanone] | < 3 µM | < 3 µM |

The remaining lines, values ahead:

| IC50 (human Nav1.7) | IC50 (human NaV1.3) | Compound |
| --- | --- | --- |
| < 3 µM | < 3 µM | CCn1nc(C(=O)N2CCN(c3cc(OCC(F)(F)F)ncn3)CC2)cc1C(F)(F)F [Example 229, (1-ethyl-5-(trifluoromethyl)-1H-pyrazol-3-yl)(4-(6-(2,2,2-trifluoroethoxy)pyrimidin-4-yl)piperazin-1-yl)methanone] |
| < 3 µM | < 3 µM | O=C(c1csc(-c2ccccn2)n1)N1CCN(c2cc(OCC(F)(F)F)ncn2)CC1 [Example 244, (2-(pyridin-2-yl)thiazol-4-yl)(4-(6-(2,2,2-trifluoroethoxy)pyrimidin-4-yl)piperazin-1-yl)methanone] |

Reference: patent US8999974B2, “Acyl piperazine derivatives as TTX-S blockers” (Raqualia Pharma Inc., priority 2010, dated 2015)
